Source: patent US6335368B1, “Use of alverine for reducing wrinkles” (Societe L'Oreal S.A., priority 1999, dated 2002)
Like-named read-outs stand apart in the source and are kept apart here.

Test system: phrenic nerve/diaphragm isolated from rat (striated muscle)
Assay: Nerve/muscle junction (motor plate) model: isolated rat phrenic nerve/diaphragm preparation
Assay type: cell-based
Settings: for inhibition at 100 µM: Rattus norvegicus
Procedure: Activity of Alverine in a model of nerve/muscle junction (motor plate) measured in a preparation of phrenic nerve/diaphragm isolated from rat (striated muscle) (Pollard B. J. et al, Br. J. Anaesth., 1988, 61, 419-424). The phrenic nerve and the diaphragm are carefully isolated and placed in a 50 ml tank filled with survival fluid (Krebs-Henseleit fluid) maintained at a temperature of 37° C. and oxygenated using an oxygen/CO2 mixture (95/5). The variations in tension of the diaphragm are recorded with an initial preload of several grams. After a relaxation period of 30 min., the diaphragm is stimulated indirectly via the phrenic nerve. On each preparation, the effect of the test products was evaluated in a first stage as regards the contractions induced by indirect stimulation via stimulation of the phrenic nerve (0.1 to 0.5 volts, 0.3 ms, 0.1 Hz) at increasing and cumulative concentrations from 10^−9 M to 10^−4 M. In the event of an effect at the end of the test, the diaphragm is stimulated directly in order to determine whether or not the inhibition of the neurotransmission results from a pre-junctional blockage or a post-junctional blockage.

Structure (SMILES): CCN(CCCc1ccccc1)CCCc1ccccc1 [Alverine, di(phenylpropyl)ethylamine]
- inhibition of contractions induced by the indirect stimulations (10^−4 M): completely inhibits
- inhibition at 100 µM (10^−4 M Alverine, contractions induced by indirect stimulation via phrenic nerve, 1st study, read-out: % of inhibition, indirect stimulation): 100%
- inhibition at 100 µM (10^−4 M Alverine, contractions induced by indirect stimulation via phrenic nerve, 2nd study, read-out: % of inhibition, indirect stimulation): 100%
- inhibition at 100 µM (10^−4 M Alverine, direct stimulation of the diaphragm, 1st study, read-out: % of inhibition, direct stimulation): 61.4%
- inhibition at 100 µM (10^−4 M Alverine, direct stimulation of the diaphragm, 2nd study, read-out: % of inhibition, direct stimulation): 42.2%
- inhibition at 100 µM (10^−4 M, read-out: inhibition of contractions induced by the direct stimulations): ~50%
